Reference: ChEMBL document CHEMBL3734743, “Potent complement C3a receptor agonists derived from oxazole amino acids: Structure-activity relationships” (Bioorg Med Chem Lett, 2015)
pEC50, pIC50: −log10 of the molar value. Calls of active or inactive are those of the source. The calls are words filed in the database; no cut-off is given here.

Columns and labels:
[1] = molecular target: T1, C3a anaphylatoxin chemotactic receptor (Homo sapiens, UniProt Q16581); assay: Displacement of [125I]-C3a from C3aR in human MDM cells after 60 mins by microbeta scintillation counting analysis; assay type: cell-based
T1 sequence (Q16581 whole entry): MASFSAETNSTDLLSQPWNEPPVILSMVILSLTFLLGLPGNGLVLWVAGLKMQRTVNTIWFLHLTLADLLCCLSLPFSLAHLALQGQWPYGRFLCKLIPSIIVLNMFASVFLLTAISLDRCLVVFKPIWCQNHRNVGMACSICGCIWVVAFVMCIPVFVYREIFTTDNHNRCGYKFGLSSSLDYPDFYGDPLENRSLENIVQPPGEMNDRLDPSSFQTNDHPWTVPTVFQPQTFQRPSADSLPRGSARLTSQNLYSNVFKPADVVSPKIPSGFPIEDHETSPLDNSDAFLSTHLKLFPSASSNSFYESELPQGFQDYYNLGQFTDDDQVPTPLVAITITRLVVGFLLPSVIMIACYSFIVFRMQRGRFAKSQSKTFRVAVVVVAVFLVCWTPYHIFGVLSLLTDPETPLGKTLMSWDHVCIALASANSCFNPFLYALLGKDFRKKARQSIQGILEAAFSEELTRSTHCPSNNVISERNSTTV

[2] = molecular target: T1, C3a anaphylatoxin chemotactic receptor; assay: Agonist activity at C3aR in human MDM cells assessed as inhibition of C3a-induced Ca2+ response measured for 60 secs by fluorescence assay; assay type: functional, cell-based
[3] = molecular target: T2, C5a anaphylatoxin chemotactic receptor 1 (Homo sapiens) (UniProt P21730); assay: Displacement of [125I]-C5a from C5aR in human MDM cells at 20 uM after 60 mins by microbeta scintillation counting analysis; assay type: cell-based
T2 sequence (whole entry): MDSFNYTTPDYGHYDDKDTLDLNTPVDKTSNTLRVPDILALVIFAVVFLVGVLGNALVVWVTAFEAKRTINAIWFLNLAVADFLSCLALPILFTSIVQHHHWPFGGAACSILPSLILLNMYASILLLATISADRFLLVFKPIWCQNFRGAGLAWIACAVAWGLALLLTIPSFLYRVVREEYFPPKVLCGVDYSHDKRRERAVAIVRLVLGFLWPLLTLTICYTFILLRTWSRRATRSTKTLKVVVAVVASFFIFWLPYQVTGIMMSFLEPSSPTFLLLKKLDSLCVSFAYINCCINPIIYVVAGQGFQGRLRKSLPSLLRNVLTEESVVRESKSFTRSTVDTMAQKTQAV

[4] = molecular target: T3, C3a anaphylatoxin chemotactic receptor (Homo sapiens) (UniProt Q16581); assay: Agonist activity at C3aR in human MDM cells assessed as intracellular calcium efflux at 1 uM measured for 60 secs by fluorescence based receptor desensitization assay; assay type: functional, cell-based
T3 sequence (whole entry): T1 sequence (Q16581 whole entry)

[5] = molecular target: T3, C3a anaphylatoxin chemotactic receptor (Homo sapiens); assay: Displacement of [125I]-C3a from C3aR in human MDM cells at 10 uM after 60 mins by microbeta scintillation counting analysis; assay type: cell-based
[6] = molecular target: T3, C3a anaphylatoxin chemotactic receptor (Homo sapiens); assay: Agonist activity at C3aR in human MDM cells assessed as induction of intracellular Ca2+ release measured for 60 secs in presence of C3a antagonist SB290157 by fluorescence assay; assay type: functional, cell-based

Structure (SMILES) | pIC50 [1] | pEC50 [2] | inhibition [3] | Activity [4] | inhibition [5] | Activity [6]
CC[C@H](C)[C@H](NC(=O)c1ccc2ccccc2n1)c1nc(C(=O)N[C@@H](CCCNC(=N)N)C(=O)O)co1 | 6.91 | 7.39 | inactive | inactive | – | –
CC[C@H](C)[C@H](NC(=O)CCC(=O)c1ccc(-c2ccccc2)cc1)c1nc(C(=O)N[C@@H](CCCNC(=N)N)C(=O)O)co1 | 6.82 | – | inactive | inactive | – | –
CC(C)C[C@H](NC(=O)OC(C)(C)C)c1nc(C(=O)N[C@@H](CCCNC(=N)N)C(=O)O)co1 | 7.70 | 7.72 | inactive | inactive | – | –
CC[C@H](C)[C@H](NC(=O)c1cncc(Br)c1)c1nc(C(=O)NCCCCNC(=N)N)c(C)o1 | – | – | inactive | – | inactive | –
Cc1oc([C@H](CC(C)C)NC(=O)OC(C)(C)C)nc1C(=O)N[C@@H](CCCNC(=N)N)C(=O)O | 7.85 | 7.35 | inactive | inactive | – | inactive
CC[C@H](C)[C@H](NC(=O)c1ccccc1Oc1ccccc1)c1nc(C(=O)N[C@@H](CCCNC(=N)N)C(=O)O)co1 | 7.26 | – | inactive | Active | – | –
CC[C@H](C)[C@H](NC(=O)C1(C(C)C)C=CCC=C1)c1nc(C(=O)N[C@@H](CCCNC(=N)N)C(=O)O)co1 | 6.12 | 6.13 | inactive | – | – | –
CC(C)C[C@H](NC(=O)Cc1ccc(F)cc1)c1nc(C(=O)N[C@@H](CCCNC(=N)N)C(=O)O)co1 | 6.99 | – | inactive | inactive | – | –
CC(C)C[C@H](NC(=O)c1c[nH]c2ccccc12)c1nc(C(=O)N[C@@H](CCCNC(=N)N)C(=O)O)co1 | – | – | inactive | inactive | – | inactive
CC(C)C[C@H](NC(=O)OC(C)(C)C)c1nc(C(=O)N[C@@H](CCCNC(N)=O)C(=O)O)co1 | – | – | inactive | – | inactive | –
